Laboratory results from PubChem BioAssay (NCI).
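Values below derive from 48-hour exposures of cells grown in 96-well plates, with endpoints linearly interpolated between the two concentrations bracketing the appropriate inhibition level. GI50: concentration for 50% inhibition of growth. TGI denotes the concentration required for complete inhibition of growth.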

How the values were obtained:
Assay in all cases: DTP human tumour cell line panel, 48 h
NCI-H460 lung = system: NCI-H460 lung
NCI-H522 lung = system: NCI-H522 lung
TK-10 renal = system: TK-10 renal
SK-MEL-2 melanoma = system: SK-MEL-2 melanoma
RPMI-8226 leukemia = system: RPMI-8226 leukemia
EKVX NSCLC = system: EKVX NSCLC
CAKI-1 renal = system: CAKI-1 renal
SK-MEL-28 melanoma = system: SK-MEL-28 melanoma
KM12 colon = system: KM12 colon
SN12C renal = system: SN12C renal
786-0 renal = system: 786-0 renal
IGROV1 ovarian = system: IGROV1 ovarian
M14 melanoma = system: M14 melanoma
T-47D breast = system: T-47D breast
HOP-92 NSCLC = system: HOP-92 NSCLC
UACC-62 melanoma = system: UACC-62 melanoma
U251 CNS = system: U251 CNS
SR leukemia = system: SR leukemia
ACHN renal = system: ACHN renal
MDA-MB-435 = system: MDA-MB-435
MCF7 breast = system: MCF7 breast
DU-145 prostate = system: DU-145 prostate
HCT-15 colon = system: HCT-15 colon
SF-539 CNS = system: SF-539 CNS
HOP-62 NSCLC = system: HOP-62 NSCLC
HCC-2998 colon = system: HCC-2998 colon
HS 578T breast = system: HS 578T breast
RXF 393 renal = system: RXF 393 renal
OVCAR-4 ovarian = system: OVCAR-4 ovarian
OVCAR-8 ovarian = system: OVCAR-8 ovarian
MALME-3M melanoma = system: MALME-3M melanoma
BT-549 breast = system: BT-549 breast
SK-OV-3 ovarian = system: SK-OV-3 ovarian
OVCAR-5 ovarian = system: OVCAR-5 ovarian
MDA-MB-231 breast = system: MDA-MB-231 breast
HCT-116 colon = system: HCT-116 colon
SNB-75 CNS = system: SNB-75 CNS
A498 renal = system: A498 renal
OVCAR-3 ovarian = system: OVCAR-3 ovarian
NCI-H23 lung = system: NCI-H23 lung
SK-MEL-5 melanoma = system: SK-MEL-5 melanoma
SW-620 colon = system: SW-620 colon
LOX IMVI melanoma = system: LOX IMVI melanoma
A549 NSCLC = system: A549 NSCLC
COLO 205 colon = system: COLO 205 colon
MOLT-4 leukemia = system: MOLT-4 leukemia
SNB-19 CNS = system: SNB-19 CNS
HT29 colon = system: HT29 colon
UACC-257 melanoma = system: UACC-257 melanoma
HL-60(TB) leukemia = system: HL-60(TB) leukemia
K-562 leukemia = system: K-562 leukemia
NCI-H226 lung = system: NCI-H226 lung
UO-31 renal = system: UO-31 renal
SF-295 CNS = system: SF-295 CNS
CCRF-CEM leukemia = system: CCRF-CEM leukemia
SF-268 CNS = system: SF-268 CNS

SMILES: CC1=CC(=O)C(C(C)C)=CC1=Nc1cc(Br)c(O)c(Br)c1
- GI50 (NCI-H460 lung): 3.53 µM
- TGI (NCI-H460 lung): 14.4 µM
- GI50 (NCI-H522 lung): 4.42 µM
- TGI (NCI-H522 lung): 18 µM
- GI50 (TK-10 renal): 11.7 µM
- TGI (TK-10 renal): 31.4 µM
- GI50 (SK-MEL-2 melanoma): 8.94 µM
- TGI (SK-MEL-2 melanoma): 30.1 µM
- GI50 (RPMI-8226 leukemia): 4.51 µM
- TGI (RPMI-8226 leukemia): 27.5 µM
- GI50 (EKVX NSCLC): 4.51 µM
- TGI (EKVX NSCLC): 36 µM
- GI50 (CAKI-1 renal): 2.46 µM
- TGI (CAKI-1 renal): 8.02 µM
- GI50 (SK-MEL-28 melanoma): 6.82 µM
- TGI (SK-MEL-28 melanoma): 22.4 µM
- GI50 (KM12 colon): 2.33 µM
- TGI (KM12 colon): 7.01 µM
- GI50 (SN12C renal): 5.56 µM
- TGI (SN12C renal): 18.3 µM
- GI50 (786-0 renal): 5.03 µM
- TGI (786-0 renal): 17.8 µM
- GI50 (IGROV1 ovarian): 4.68 µM
- TGI (IGROV1 ovarian): 20.2 µM
- GI50 (M14 melanoma): 2.52 µM
- TGI (M14 melanoma): 7.52 µM
- GI50 (T-47D breast): 5.74 µM
- TGI (T-47D breast): 21.2 µM
- GI50 (HOP-92 NSCLC): 11.5 µM
- TGI (HOP-92 NSCLC): 40.8 µM
- GI50 (UACC-62 melanoma): 2.86 µM
- TGI (UACC-62 melanoma): 13.1 µM
- GI50 (U251 CNS): 4.72 µM
- TGI (U251 CNS): 19.1 µM
- GI50 (SR leukemia): 3.45 µM
- TGI (SR leukemia): 15.8 µM
- GI50 (ACHN renal): 11.6 µM
- TGI (ACHN renal): 30.1 µM
- GI50 (MDA-MB-435): 2.1 µM
- TGI (MDA-MB-435): 6.13 µM
- GI50 (MCF7 breast): 4.27 µM
- TGI (MCF7 breast): 17.7 µM
- GI50 (DU-145 prostate): 3.58 µM
- TGI (DU-145 prostate): 11.7 µM
- GI50 (HCT-15 colon): 3.85 µM
- TGI (HCT-15 colon): 21.1 µM
- GI50 (SF-539 CNS): 2.29 µM
- TGI (SF-539 CNS): 5.96 µM
- GI50 (HOP-62 NSCLC): 6.29 µM
- TGI (HOP-62 NSCLC): 45.2 µM
- GI50 (HCC-2998 colon): 3.56 µM
- TGI (HCC-2998 colon): 13 µM
- GI50 (HS 578T breast): 2.76 µM
- TGI (HS 578T breast): 21.1 µM
- GI50 (RXF 393 renal): 3.9 µM
- TGI (RXF 393 renal): 15.3 µM
- GI50 (OVCAR-4 ovarian): 6.29 µM
- TGI (OVCAR-4 ovarian): 19.5 µM
- GI50 (OVCAR-8 ovarian): 4.65 µM
- TGI (OVCAR-8 ovarian): 57.8 µM
- GI50 (MALME-3M melanoma): 14.1 µM
- TGI (MALME-3M melanoma): 33.4 µM
- GI50 (BT-549 breast): 1.69 µM
- TGI (BT-549 breast): 5.64 µM
- GI50 (SK-OV-3 ovarian): 3.45 µM
- TGI (SK-OV-3 ovarian): 15.9 µM
- GI50 (OVCAR-5 ovarian): 11.8 µM
- TGI (OVCAR-5 ovarian): 30.3 µM
- GI50 (MDA-MB-231 breast): 3.65 µM
- TGI (MDA-MB-231 breast): 12.9 µM
- GI50 (HCT-116 colon): 3.39 µM
- TGI (HCT-116 colon): 11.6 µM
- GI50 (SNB-75 CNS): 4.22 µM
- TGI (SNB-75 CNS): 21.6 µM
- GI50 (A498 renal): 3.81 µM
- TGI (A498 renal): 19.6 µM
- GI50 (OVCAR-3 ovarian): 2.68 µM
- TGI (OVCAR-3 ovarian): 7.47 µM
- GI50 (NCI-H23 lung): 4.26 µM
- TGI (NCI-H23 lung): 26.1 µM
- GI50 (SK-MEL-5 melanoma): 3.15 µM
- TGI (SK-MEL-5 melanoma): 10.7 µM
- GI50 (SW-620 colon): 4.18 µM
- TGI (SW-620 colon): 15.4 µM
- GI50 (LOX IMVI melanoma): 5.04 µM
- TGI (LOX IMVI melanoma): 20.4 µM
- GI50 (A549 NSCLC): 4.98 µM
- TGI (A549 NSCLC): > 100 µM
- GI50 (COLO 205 colon): 19.2 µM
- TGI (COLO 205 colon): 35.1 µM
- GI50 (MOLT-4 leukemia): 4.53 µM
- TGI (MOLT-4 leukemia): 23.4 µM
- GI50 (SNB-19 CNS): 9.95 µM
- TGI (SNB-19 CNS): 26.1 µM
- GI50 (HT29 colon): 4.05 µM
- TGI (HT29 colon): 16 µM
- GI50 (UACC-257 melanoma): 14.7 µM
- TGI (UACC-257 melanoma): 33.1 µM
- GI50 (HL-60(TB) leukemia): 3.48 µM
- TGI (HL-60(TB) leukemia): 8.5 µM
- GI50 (K-562 leukemia): 3.92 µM
- TGI (K-562 leukemia): 13.4 µM
- GI50 (NCI-H226 lung): 3.87 µM
- TGI (NCI-H226 lung): 19.3 µM
- GI50 (UO-31 renal): 8.22 µM
- TGI (UO-31 renal): 33.1 µM
- GI50 (SF-295 CNS): 1.4 µM
- TGI (SF-295 CNS): 5.53 µM
- GI50 (CCRF-CEM leukemia): 2.72 µM
- TGI (CCRF-CEM leukemia): 18.1 µM
- GI50 (SF-268 CNS): 4.49 µM
- TGI (SF-268 CNS): 17.2 µM
